Experiments:
[1] = system: primary CD34+/CD133+ HSPCs from healthy donors; assay: Erythroid differentiation of primary CD34+/CD133+ HSPCs with EPO (flow cytometry CD235a/CD71); assay type: cell-based, human; conditions: 0.1 μM nilotinib from 3 to 7 d or 7 to 10 d of culture
Description: (§1) FIG. 8. Nilotinib promotes erythropoiesis of primary CD34^+/CD133^+ HSPCs from healthy donors. (A) Primary human CD34^+/CD133^+ cells were differentiated with erythropoietin (EPO) and 0.1 μM nilotinib was added from 3 to 7 d of culture and the number of life cells calculated by the trypan blue exclusion assay. (B, C) Cells were stained with anti-CD235a-APC and anti-CD71-FITC, and erythroid differentiation was then analyzed by flow cytometry. Representative dot plots at different differentiation times (B) and overlapped histogram of CD235a at 7 d and the mean fluorescence intensity (MFI) at different differentiation times (C) are shown.
as §1, with “FIG. 9.” for “FIG. 8.”, “with EPO” for “with erythropoietin (EPO)”, “from 7” for “from 3”, “to 10” for “to 7”, “at 10” for “at 7”, “shown. […]” for “shown.”

K562 cells = assay: Transcriptomic analysis (RNA seq) and RT-qPCR of erythroid genes in K562 cells; assay type: cell-based, human
Description: FIG. 12. Nilotinib promotes an erythroid gene expression profile in human K562 cells. K562 cells were pretreated with the indicated concentrations of 0.1 μM nilotinib, for 24 h and then differentiated with 50 μM hemin for additional 24 h. RNA was extracted and transcriptomic analysis performed by RNA seq. (A) Heatmap of selected erythroid genes. (B) Validation of nilotinib-induced erythroid genes by RT-qPCR. Each dot represents a biological replicate and the mean±SEM for each group is also shown.

[2] = system: bone marrow mononuclear cells of a DBA patient with a RPS19 mutation; assay: Colony assay of BMMCs from a DBA patient in methylcellulose medium; assay type: cell-based, human; conditions: 2 weeks
Description: (§2) FIG. 6. NLRP1 is activated by phosphorylation of the linker domain after activation of ZAKα and pharmacological inhibition of this signaling pathway promotes erythropoiesis in DBA. (A-D) Number of neutrophils (A-C), and caspase-1 activity (D) in 2 dpf larvae obtained by injection of one-cell stage embryos with human NLRP1 (wild type-WT, S107A and S107D) and treated from 1 to 2 dpf by bath immersion with 1 μM nilotinib (B-D). Representative images of neutrophils (arrows) are also shown in C. (E, F) BMMCs from a DBA patient were incubated for 2 weeks in human methylcellulose complete medium at 37° C. in the presence or absence of the indicated concentrations of nilotinib, and colonies were counted using standard morphological criteria. Each dot represents one individual and the mean±SEM for each group is also shown. P values were calculated by one-way ANOVA and Tukey's multiple range test. n.s., non-significant; *P<0.05; **P<0.01; ***P<0.001; ****P<0.0001.
Bone marrow aspirates were collected at the Hospital General Universitario José Maria Morales Meseguer under CEIC approval number EST: 12/16. […] BMMCs were incubated in methylcellulose medium at 37° C. in a 5% CO2-humidified atmosphere in the presence of DMSO or nilotinib (0.01 and 0.1 μM), and colonies were counted at day 9 and 14 using standard morphological criteria.

HSPCs from DBA patients = assay: Colony assay of PBMCs from DBA patients in methylcellulose medium; assay type: cell-based, human; conditions: 2 weeks, indicated concentrations (FIG. 13A)
Description: FIG. 13. […] PBMCs from DBA patients were incubated for 2 weeks in human methylcellulose complete medium at 37° C. in the presence or absence of the indicated concentrations of nilotinib, imatinib, dasatinib, bosutinib and ponatinib, and the number of erythroid (A) and myeloid (B) colonies counted using standard morphological criteria. Each dot represents one patient and the means±SEM for each group is also shown.

caspase-1 = assay: Caspase-1 activity assay in zebrafish larvae (Z-YVAD-AFC); assay type: in vivo, Zebrafish (Danio rerio H.)
Description: as §2, with “****P<0.0001. […]” for “****P<0.0001.”
Caspase-1 activity was determined with the fluorometric substrate Z-YVAD 7-Amido-4-trifluoromethylcoumarin (Z-YVAD-AFC, caspase-1 substrate VI, Calbiochem). […] After incubation, the fluorescence of AFC released from the Z-YVAD-AFC substrate was measured with a FLUOstart spectrofluorometer (BGM, LabTechnologies) at an excitation wavelength of 405 nm and an emission wavelength of 492 nm.

For `Cc1cn(-c2cc(NC(=O)c3ccc(C)c(Nc4nccc(-c5cccnc5)n4)c3)cc(C(F)(F)F)c2)cn1` [nilotinib], the “erythropoiesis of primary CD34+/CD133+ HSPCs” value [1] was “accelerated erythropoiesis”, the “transcript levels of erythroid genes (RT-qPCR)” value (K562 cells; K562 cells incubated with nilotinib) was “increased transcript levels” and the “expression of erythroid genes (transcriptomic analysis)” value (K562 cells; K562 cells, 0.1 μM nilotinib 24 h, control cells and upon hemin 24 h, RNA seq) was “robustly induced”. The “number of erythroid colonies” value ([2]; nilotinib 0.01 and 0.1 μM (FIG. 6E)) was “strongly increased”, the “number of myeloid colonies” value ([2]; nilotinib 0.01 and 0.1 μM (FIG. 6F)) was “not affected” and the “defective erythropoiesis of HSPCs from DBA patients (erythroid colonies)” value (HSPCs from DBA patients) was “alleviated defective erythropoiesis”. The “caspase-1 activation induced by NLRP1 with phosphomimetic S107D mutation” value (caspase-1; larvae expressing human NLRP1 S107D, 1 μM nilotinib 1 to 2 dpf) was “failed to reverse” and the “caspase-1 activation induced by wild type NLRP1” value (caspase-1; larvae expressing human wild type NLRP1, 1 μM nilotinib 1 to 2 dpf) was “able to abrogate”.
